# Laboratory results as given in patent publication US20220054469A1, “FARNESOID X RECEPTOR AGONISTS AND USES THEREOF” (Metacrine, Inc., priority 2018, published 2022).
# Molecular target: T1, hFXR (Homo sapiens, UniProt Q96RI1)
# T1 construct: expressed in transfected cells; host or cells: CV-1 cells
# T1 sequence (Q96RI1 1-486): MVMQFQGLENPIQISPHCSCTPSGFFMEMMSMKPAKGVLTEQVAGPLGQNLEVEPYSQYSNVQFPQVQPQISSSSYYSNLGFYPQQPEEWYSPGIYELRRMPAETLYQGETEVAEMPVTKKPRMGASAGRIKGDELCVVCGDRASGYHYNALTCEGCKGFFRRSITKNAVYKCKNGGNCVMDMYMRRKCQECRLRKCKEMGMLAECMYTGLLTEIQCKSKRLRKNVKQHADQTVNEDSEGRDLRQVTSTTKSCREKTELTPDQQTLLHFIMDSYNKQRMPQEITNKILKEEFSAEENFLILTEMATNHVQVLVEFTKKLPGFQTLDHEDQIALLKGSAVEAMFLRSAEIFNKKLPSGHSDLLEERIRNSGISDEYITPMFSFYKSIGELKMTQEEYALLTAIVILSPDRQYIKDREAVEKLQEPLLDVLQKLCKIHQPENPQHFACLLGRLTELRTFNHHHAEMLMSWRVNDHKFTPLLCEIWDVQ
# T1 sequence (P19793 1-462 partner): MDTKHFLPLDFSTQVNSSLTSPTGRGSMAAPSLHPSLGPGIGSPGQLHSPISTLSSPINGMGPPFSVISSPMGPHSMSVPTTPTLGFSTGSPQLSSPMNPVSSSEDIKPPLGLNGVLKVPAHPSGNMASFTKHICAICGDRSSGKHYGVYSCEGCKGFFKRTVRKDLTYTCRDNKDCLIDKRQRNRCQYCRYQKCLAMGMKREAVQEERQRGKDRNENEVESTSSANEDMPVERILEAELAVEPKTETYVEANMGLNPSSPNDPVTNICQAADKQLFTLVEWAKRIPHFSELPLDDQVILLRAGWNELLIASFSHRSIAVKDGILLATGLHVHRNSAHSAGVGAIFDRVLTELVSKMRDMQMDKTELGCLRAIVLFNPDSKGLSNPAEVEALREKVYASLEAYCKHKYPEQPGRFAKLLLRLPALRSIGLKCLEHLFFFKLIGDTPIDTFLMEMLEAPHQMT
# Experiment: In Vitro FXR Assay (TK)
# Format: cell-based
# Details: CV-1 cells transfected with hFXR, hRXR, TK-ECRE-luc and pCMX-YFP; incubated with compound for 18 hrs; luminescence
# Method: Example B-1: In Vitro FXR Assay (TK)
# CV-1 cells were seeded at a density of 2,000,000 cells in a T175 flask with DMEM+10% charcoal double-stripped FBS and incubated at 37° C. in 5% CO2 for 18 h (O/N).
# After 18 h of incubation, the medium in the T175 flask was changed with fresh DMEM+10% charcoal super-stripped serum. In a polypropylene tube, 2500 μL OptiMEM (Life Technologies, Cat #31985-062) was combined with expression plasmids for hFXR, hRXR, TK-ECRE-luc and pCMX-YFP. The tube was then briefly vortexed and incubated at room temperature for 5 minutes. Transfection reagent (X-tremeGENE HP from Roche, Cat #06 366 236 001) was added to the OptiMEM/plasmid mixture vortexed and incubated at room temperature for 20 minutes. Following incubation, the transfection reagent/DNA mixture complex was added to cells in the T175 flask and the cells were incubated at 37° C. in 5% CO2 for 18 h (O/N).
# Compounds were serially diluted in DMSO and added to transfected CV-1 cells. The cells were then incubated for 18 hrs. The next day cells were lysed and examined for luminescence.
row,Compound,EC50
1,"COc1ccc(C23CCC(CN(c4ccnc(-c5cnn(C(C)C)c5)c4)C(=O)[C@H]4CC[C@H](CC(=O)O)CC4)(CC2)CC3)cc1C (relative stereo) [Compound 4.05, trans-2-(4-((2-(1-Isopropyl-1H-pyrazol-4-yl)pyridin-4-yl)((4-(4-methoxy-3-methylphenyl)bicyclo[2.2.2]octan-1-yl)methyl)carbamoyl)cyclohexyl)acetic acid]",0.05 to 1 µM
2,"COc1ccc(C23CCC(CN(c4cc(-c5cnn(C(C)(C)C)c5)ncn4)C(=O)[C@H]4CC[C@H](CC(=O)O)CC4)(CC2)CC3)cc1C [Compound 4.07, trans-2-(4-((6-(1-(tert-Butyl)-1H-pyrazol-4-yl)pyrimidin-4-yl)((4-(4-methoxy-3-methylphenyl)bicyclo[2.2.2]octan-1-yl)methyl)carbamoyl)cyclohexyl)acetic acid]",0.05 to 1 µM
3,"COc1ccc(C23CCC(CN(c4cncc(-c5cnn(C(C)C)c5)n4)C(=O)[C@H]4CC[C@H](CC(=O)O)CC4)(CC2)CC3)cc1C (relative stereo) [Compound 4.10, trans-2-(4-((6-(1-Isopropyl-1H-pyrazol-4-yl)pyrazin-2-yl)((4-(4-methoxy-3-methylphenyl)bicyclo[2.2.2]octan-1-yl)methyl)carbamoyl)cyclohexyl)acetic acid]",0.05 to 1 µM
4,"COc1ccc(C23CCC(CN(c4cc(-n5cc(C(C)C)cn5)ccn4)C(=O)[C@H]4CC[C@H](CC(=O)O)CC4)(CC2)CC3)cc1C [Compound 4.22, trans-2-(4-((4-(4-Isopropyl-1H-pyrazol-1-yl)pyridin-2-yl)((4-(4-methoxy-3-methylphenyl)bicyclo[2.2.2]octan-1-yl)methyl)carbamoyl)cyclohexyl)acetic acid]",0.05 to 1 µM
5,"COc1ccc(C23CCC(CN(c4cccc(-c5cnn(C(C)(C)C)c5)c4)C(=O)[C@H]4CC[C@H](CC(=O)O)CC4)(CC2)CC3)cc1C [Compound 2.06, trans-2-(4-((3-(1-(tert-Butyl)-1H-pyrazol-4-yl)phenyl)((4-(4-methoxy-3-methylphenyl)bicyclo[2.2.2]octan-1-yl)methyl)carbamoyl)cyclohexyl)acetic acid]",≤ 0.05 µM
6,"COc1ccc(C23CCC(CN(C(=O)[C@@H]4CCC[C@H](CC(=O)O)C4)c4cc(-c5cnn(C(C)C)c5)ccn4)(CC2)CC3)cc1C (relative stereo) [Compound 5, cis-2-(3-((4-(1-isopropyl-1H-pyrazol-4-yl)pyridin-2-yl)((4-(4-methoxy-3-methylphenyl)bicyclo[2.2.2]octan-1-yl)methyl)carbamoyl)cyclohexyl)acetic acid]",≤ 0.05 µM
7,"COc1ccc(C23CCC(CN(c4cccc(-c5cnn(C(C)(C)C)c5)c4)C(=O)[C@H]4CC[C@H](C(=O)O)CC4)(CC2)CC3)cc1C [Compound 2.03, trans-4-((3-(1-(tert-Butyl)-1H-pyrazol-4-yl)phenyl)((4-(4-methoxy-3-methylphenyl)bicyclo[2.2.2]octan-1-yl)methyl)carbamoyl)cyclohexanecarboxylic acid]",≤ 0.05 µM
8,"COc1ccc(C23CCC(CN(c4cccc(-c5cnn(C(C)C)c5)c4)C(=O)[C@H]4CC[C@H](C(=O)O)CC4)(CC2)CC3)cc1C [Compound 4.01, trans-4-((3-(1-Isopropyl-1H-pyrazol-4-yl)phenyl)((4-(4-methoxy-3-methylphenyl)bicyclo[2.2.2]octan-1-yl)methyl)carbamoyl)cyclohexanecarboxylic acid]",≤ 0.05 µM
9,"CC(C)n1cc(-c2cccc(N(CC34CCC(c5ccc(N(C)C)nc5)(CC3)CC4)C(=O)[C@H]3CC[C@H](CC(=O)O)CC3)c2)cn1 [Compound 4.14, trans-2-(4-(((4-(6-(Dimethylamino)pyridin-3-yl)bicyclo[2.2.2]octan-1-yl)methyl)(3-(1-isopropyl-1H-pyrazol-4-yl)phenyl)carbamoyl)cyclohexyl)acetic acid]",≤ 0.05 µM
10,"COc1ccc(C23CCC(CN(c4cc(-c5nc(C(C)C)no5)ccn4)C(=O)[C@H]4CC[C@H](CC(=O)O)CC4)(CC2)CC3)cc1C [Compound 4.20, trans-2-(4-((4-(3-Isopropyl-1,2,4-oxadiazol-5-yl)pyridin-2-yl)((4-(4-methoxy-3-methylphenyl)bicyclo[2.2.2]octan-1-yl)methyl)carbamoyl)cyclohexyl)acetic acid]",0.05 to 1 µM
11,"COc1ccc(C23CCC(CN(c4nccc(-c5cnn(C(C)C)c5)n4)C(=O)[C@H]4CC[C@H](CC(=O)O)CC4)(CC2)CC3)cc1C (relative stereo) [Compound 4.09, trans-2-(4-((4-(1-Isopropyl-1H-pyrazol-4-yl)pyrimidin-2-yl)((4-(4-methoxy-3-methylphenyl)bicyclo[2.2.2]octan-1-yl)methyl)carbamoyl)cyclohexyl)acetic acid]",≤ 0.05 µM
12,"COc1ccc(C23CCC(CN(c4cc(-c5cnn(C(C)(C)C)c5)ccn4)C(=O)[C@H]4CC[C@H](CC(=O)O)CC4)(CC2)CC3)cc1C [Compound 4.04, trans-2-(4-((4-(1-(tert-Butyl)-1H-pyrazol-4-yl)pyridin-2-yl)((4-(4-methoxy-3-methylphenyl)bicyclo[2.2.2]octan-1-yl)methyl)carbamoyl)cyclohexyl)acetic acid]",≤ 0.05 µM
13,"COc1ncc(C23CCC(CN(c4cc(-c5cnn(C(C)(C)C)c5)ccn4)C(=O)[C@H]4CC[C@H](CC(=O)O)CC4)(CC2)CC3)cc1C [Compound 4.13, trans-2-(4-((4-(1-(tert-Butyl)-1H-pyrazol-4-yl)pyridin-2-yl)((4-(6-methoxy-5-methylpyridin-3-yl)bicyclo[2.2.2]octan-1-yl)methyl)carbamoyl)cyclohexyl)acetic acid]",≤ 0.05 µM

# Results, then the compound that gave them:
row,EC50,Compound
1,≤ 0.05 µM,"COc1ccc(C23CCC(CN(c4cccc(-n5cnc(C6CC6)c5)c4)C(=O)[C@H]4CC[C@H](CC(=O)O)CC4)(CC2)CC3)cc1C [Compound 4.29, trans-2-(-4-((3-(4-Cyclopropyl-1H-imidazol-1-yl)phenyl)((4-(4-methoxy-3-methylphenyl)bicyclo[2.2.2]octan-1-yl)methyl)carbamoyl)cyclohexyl)acetic acid]"
2,≤ 0.05 µM,"COc1ccc(C23CCC(CN(c4cc(-c5cnn(C(C)C)c5)ccn4)C(=O)[C@H]4CC[C@H](CC(=O)O)CC4)(CC2)CC3)cc1C [Compound 1.01, trans-2-(4-((4-(1-Isopropyl-1H-pyrazol-4-yl)pyridin-2-yl)((4-(4-methoxy-3-methylphenyl)bicyclo[2.2.2]octan-1-yl)methyl)carbamoyl)cyclohexyl)acetic acid]"
3,≤ 0.05 µM,"COc1ccc(C23CCC(CN(c4cc(-c5cnc(C(C)C)s5)ccn4)C(=O)[C@H]4CC[C@H](CC(=O)O)CC4)(CC2)CC3)cc1C [Compound 4.16, trans-2-(4-((4-(2-Isopropylthiazol-5-yl)pyridin-2-yl)((4-(4-methoxy-3-methylphenyl)bicyclo[2.2.2]octan-1-yl)methyl)carbamoyl)cyclohexyl)acetic acid]"
4,≤ 0.05 µM,"COc1ccc(C23CCC(CN(c4cc(-c5cnn(C(C)C)c5)ccn4)C(=O)[C@H]4CC[C@H](CCC(=O)O)CC4)(CC2)CC3)cc1C [Compound 1, trans-3-(4-((4-(1-Isopropyl-1H-pyrazol-4-yl)pyridin-2-yl)((4-(4-methoxy-3-methylphenyl)bicyclo[2.2.2]octan-1-yl)methyl)carbamoyl)cyclohexyl)propanoic acid]"
5,≤ 0.05 µM,"COc1ccc(C23CCC(CN(c4cc(-c5cnn(C(C)C)c5)c(F)cn4)C(=O)[C@H]4CC[C@H](CC(=O)O)CC4)(CC2)CC3)cc1C [Compound 2.10, trans-2-(4-((5-Fluoro-4-(1-isopropyl-1H-pyrazol-4-yl)pyridin-2-yl)((4-(4-methoxy-3-methylphenyl)bicyclo[2.2.2]octan-1-yl)methyl)carbamoyl)cyclohexyl)acetic acid]"
6,≤ 0.05 µM,"COc1ccc(C23CCC(CN(c4cc(-c5coc(C(C)(C)C)n5)ccn4)C(=O)[C@H]4CC[C@H](CC(=O)O)CC4)(CC2)CC3)cc1C [Compound 4.18, trans-2-(4-((4-(2-(tert-Butyl)oxazol-4-yl)pyridin-2-yl)((4-(4-methoxy-3-methylphenyl)bicyclo[2.2.2]octan-1-yl)methyl)carbamoyl)cyclohexyl)acetic acid]"
